# Results published in patent US20180050993A1, “NOVEL FLUORINATED DERIVATIVES AS EGFR INHIBITORS USEFUL FOR TREATING CANCERS” (Trillium Therapeutics Inc., priority 2015, published 2018).
# Structures can show the parent of a compound that is named as a salt.
# Tests used:
# Test in all cases: NCI screening panel, growth %
# Assay type in all cases: cell-based, human
# NCI-H226 = settings: NSCLC
# Experimental: (§1) After 24 h, two plates of each cell line are fixed in situ with TCA, to represent a measurement of the cell population for each cell line at the time of drug addition (Tz). Experimental drugs are solubilised in dimethyl sulfoxide at 400-fold the desired final maximum test concentration and stored frozen prior to use. At the time of drug addition, an aliquot of frozen concentrate is thawed and diluted to twice the desired final maximum test concentration with complete medium containing 50 μg/ml gentamicin. Additional four, 10-fold or log serial dilutions are made to provide a total of five drug concentrations plus control. Aliquots of 100 μl of these different drug dilutions are added to the appropriate microtiter wells already containing 100 μl of medium, resulting in the required final drug concentrations.
# (§2) Following drug addition, the plates are incubated for an additional 48 h at 37° C., 5% CO2, 95% air, and 100% relative humidity. For adherent cells, the assay is terminated by the addition of cold TCA (trichloroacetic acid). Cells are fixed in situ by the gentle addition of 50 μl of cold 50% (w/v) TCA (final concentration, 10% TCA) and incubated for 60 minutes at 4° C. The supernatant is discarded, and the plates are washed five times with tap water and air dried. Sulforhodamine B (SRB) solution (100 μl) at 0.4% (w/v) in 1% acetic acid is added to each well, and plates are incubated for 10 minutes at room temperature. After staining, unbound dye is removed by washing five times with 1% acetic acid and the plates are air dried. Bound stain is subsequently solubilised with 10 mM trizma base, and the absorbance is read on an automated plate reader at a wavelength of 515 nm. For suspension cells, the methodology is the same except that the assay is terminated by fixing settled cells at the bottom of the wells by gently adding 50 μl of 80% TCA (final concentration, 16% TCA). Using the seven absorbance measurements [time zero, […], control growth, (C), and test growth in the presence of drug at the five concentration levels (Ti)], the percentage growth is calculated at each of the drug concentration levels. Percentage growth inhibition is calculated as: [(Ti−Tz)/(C−Tz)]×100 for concentrations in which Ti>/=Tz and [(Ti−Tz)/Tz]×100 for concentrations in which Ti<Tz.
# (§3) Three dose response parameters are calculated for each experimental agent. […] The drug concentration resulting in total growth inhibition (TGI) is calculated from Ti=Tz. […] Values are calculated for each of these three parameters if the level of activity is reached. However, if the effect is not reached or is exceeded, the value for that parameter is expressed as greater or less than the maximum or minimum concentration tested.
# BT-549 = settings: Breast
# Experimental: as §1, §2, §3
# SF-539 = settings: CNS
# Experimental: as §1, §2, §3
# NCI/ADR-RES = settings: Ovarian
# Experimental: as §1, §2, §3
# TK-10 = settings: Renal
# Experimental: as §1, §2, §3
# UO-31 = settings: Renal
# Experimental: as §1, §2, §3
# A498 = settings: Renal
# Experimental: as §1, §2, §3
# MALME-3M = settings: Melanoma
# Experimental: as §1, §2, §3
# MDA-MB-231/ATCC = settings: Breast
# Experimental: as §1, §2, §3
# NCI-H23 = settings: NSCLC
# Experimental: as §1, §2, §3
# MDA-MB-435 = settings: Melanoma
# Experimental: as §1, §2, §3
# NCI-H322M = settings: NSCLC
# Experimental: as §1, §2, §3
# SK-MEL-28 = settings: Melanoma
# Experimental: as §1, §2, §3
# HOP-62 = settings: NSCLC
# Experimental: as §1, §2, §3
# OVCAR-8 = settings: Ovarian
# Experimental: as §1, §2, §3
# PC-3 = settings: Prostate
# Experimental: as §1, §2, §3
# SR = settings: Leukemia
# Experimental: as §1, §2, §3
# HOP-92 = settings: NSCLC
# Experimental: as §1, §2, §3
# NCI-H460 = settings: NSCLC
# Experimental: as §1, §2, §3
# SNB-19 = settings: CNS
# Experimental: as §1, §2, §3
# HCC-2998 = settings: Colon
# Experimental: as §1, §2, §3
# HL-60(TB) = settings: Leukemia
# Experimental: as §1, §2, §3
# RXF 393 = settings: Renal
# Experimental: as §1, §2, §3
# CAKI-1 = settings: Renal
# Experimental: as §1, §2, §3
# K-562 = settings: Leukemia
# Experimental: as §1, §2, §3
# 786-0 = settings: Renal
# Experimental: as §1, §2, §3
# MOLT-4 = settings: Leukemia
# Experimental: as §1, §2, §3
# U251 = settings: CNS
# Experimental: as §1, §2, §3
# UACC-62 = settings: Melanoma
# Experimental: as §1, §2, §3
# HT29 = settings: Colon
# Experimental: as §1, §2, §3
# SK-OV-3 = settings: Ovarian
# Experimental: as §1, §2, §3
# ACHN = settings: Renal
# Experimental: as §1, §2, §3
# IGROV1 = settings: Ovarian
# Experimental: as §1, §2, §3
# UACC-257 = settings: Melanoma
# Experimental: as §1, §2, §3
structure (smiles),measurement,setting,value
"Fc1ccc(Nc2ncnc3cc(OCCOC(F)F)c(OCCOC(F)F)cc23)c(F)c1Cl [Compound 2D•HCl, N-(3-chloro-2,4-difluoro-phenyl)-6,7-bis[2-(difluoromethoxy)ethoxy]quinazolin-4-amine]",Growth %,NCI-H226,84.65%
same,Growth %,BT-549,93.32%
same,Growth %,SF-539,73.76%
same,Growth %,NCI/ADR-RES,54.63%
same,Growth %,TK-10,34.04%
same,Growth %,UO-31,15.03%
same,Growth %,A498,13.11%
same,Growth %,MALME-3M,73.73%
same,Growth %,MDA-MB-231/ATCC,65.62%
same,Growth %,NCI-H23,78.31%
same,Growth %,MDA-MB-435,56.24%
same,Growth %,NCI-H322M,−7.70%
same,Growth %,SK-MEL-28,81.10%
same,Growth %,HOP-62,64.36%
same,Growth %,OVCAR-8,69.11%
same,Growth %,PC-3,65.70%
same,Growth %,SR,75.96%
same,Growth %,HOP-92,39.43%
same,Growth %,NCI-H460,85.74%
same,Growth %,SNB-19,75.78%
same,Growth %,HCC-2998,91.93%
same,Growth %,HL-60(TB),80.36%
same,Growth %,RXF 393,37.95%
same,Growth %,CAKI-1,15.86%
same,Growth %,K-562,37.37%
same,Growth %,786-0,60.48%
same,Growth %,MOLT-4,55.03%
same,Growth %,U251,72.65%
same,Growth %,UACC-62,82.70%
same,Growth %,HT29,58.66%
same,Growth %,SK-OV-3,−13.36%
same,Growth %,ACHN,17.88%
same,Growth %,IGROV1,6.79%
same,Growth %,UACC-257,87.43%
